This note sets out measurements from patent US20140303199A1, “INHIBITORS OF RGS PROTEINS” (priority 2013, published 2014).

pIC50: −log10 of the molar value. Where a name gives a salt, the structure may show the parent alone.

The target of one test is T1, RGS4(Δ7) mutant (Rattus norvegicus, UniProt P49799, C132A/C148A/C183A/C197A/C204A/C71A/C95A).
T1 construct: fused to the N-terminus of an RGS4 construct containing amino acids 51-205; 10x His tag (N, cleaved yes); TEV protease recognition site (N, cleaved yes); made in house; host or cells: E. coli BL21-DE3 (vector pMALC2H10T)
Kind of test: Malachite green assay counter screen against cysteine-null RGS4(Δ7) mutant. The class given is biochemical. Conditions: for pIC50: concentration-response; for Inhibition of RGS4(Δ7) mutant (in words): screen hits. The text has this: Rat RGS4, sharing 97% sequence identity with human RGS4, and the cysteine to alanine mutant were expressed as fusion proteins of maltose binding protein (MBP), a 10× His tag, and a TEV protease recognition site fused to the N-terminus of an RGS4 construct containing amino acids 51-205, in the vector pMALC2H10T in BL21-DE3 bacteria (Stratagene; Santa Clara, Calif.). The single cysteine-null Δ51-RGS4 construct was generated by site-directed mutagenesis as described previously Expression and purification were performed as described previously. Purified protein was incubated with TEV protease at a molar ratio of 10:1 (fusion protein:TEV protease) overnight at 4° C. The cleaved Δ51-RGS4 was then isolated by purification over an ANX column (GE Healthcare; Fairfield, Conn.) in 50 mM HEPES at pH6.8 and 50 mM NaCl. The flow through, containing the ˜99% Δ51-RGS4 as determined by SDS-PAGE gel, was then collected and concentrated using a YM-10 centrifugal concentrator (Millipore; Billerica, Mass.). The concentration of Δ51-RGS4 was calculated based on the absorbance at 280 nm utilizing a Take-3 plate (Biotek; Winnoski, Vt.) in a Synergy 2 plate reader (Biotek; Winnoski, Vt.).
Stock solutions of each of the 3 components of the developing solution were prepared, which were stable for long-term storage. Malachite solution was prepared by first diluting concentrated sulfuric acid 1:5 in distilled water. Once the solution cooled to 25° C., malachite solution was prepared by dissolving 0.44 g of malachite green oxalate (Alfa Aesar; Ward Hill, Mass.) in 360 mL diluted acid and stored at 25° C. Molybdate solution, containing 7.5% ammonium molybdate tetrahydrate (Alfa Aesar; Ward Hill, Mass.), was prepared in distilled water and stored at 4° C. Tween-20 solution, used to maintain solubility of the phosphate-molybdate-malachite complex, was prepared as 11% (v/v) Tween-20 in distilled water. On the day of use, 2.5 mL molybdate solution and 0.2 mL Tween-20 solution were added to 10 mL of malachite solution and mixed quickly to avoid precipitation of malachite. The final ratio of the Developing Solution (DS) was 50:12.5:1 (malachite:molybdate:Tween-20). The peak absorbance was determined by a 2 nm step wavelength scan, using 50 μM NaH2PO4 at pH 8.0 as the negative control.
Malachite green compound activity and Z-factor analysis conducted in 384-well plates utilized optimized parameters as discerned from the time-course experiments. 10 μL of 4× compound or MGB was dispensed into appropriate wells. For single point assay, 160 μM compound was used, and for dose-response assays a series of ½ log dilutions from 100 μM final to […] final was used. 10 μL of the optimized 4×RGS4 concentration, 0.8 μM in MGB, was dispensed into all wells. After a spin down at 100×g for 1 min, the assay plate was incubated at 25° C. for 30 min. 10 μL of the optimized Gαi concentration, 20 μM in MGB, was dispensed to each well and incubated at 25° C. for 5 min. 10 μL of the optimized 4×GTP, 600 μM in MGB, was then added to the samples. […] The samples were then stamped with 10 μL of DS and incubated for 25 min before reading absorbance at 642 nm.
Initial hits were confirmed by single point malachite green assay at 40 μM compound. […] This control would detect compounds that either interrupt the detected complex or reduce the molybdate resulting in peak shift outside of the desired wavelength. […] Compounds that increased the predicted absorbance were carried through, as they would indicate false negatives in the assay. […]
(In general: The purpose of a counterscreen is to sort out artefacts and off-target activity.)

The target of another test is T2, RGS4(WT) (Rattus norvegicus, UniProt P49799).
T2 sequence (P49799 51-205): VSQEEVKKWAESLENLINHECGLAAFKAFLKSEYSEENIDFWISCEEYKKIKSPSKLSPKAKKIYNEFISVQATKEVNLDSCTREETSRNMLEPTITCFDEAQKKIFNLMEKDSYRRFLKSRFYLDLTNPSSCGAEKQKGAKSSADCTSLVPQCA
In words: Malachite green assay of RGS4-stimulated Gαi GTPase activity. The conditions noted are these: for pIC50 / Inhibition of RGS4 (in words): malachite green assay; for pIC50: RGS4 200 nM final, concentration-response, read-out: IC50 against RGS4(WT); for Inhibition of RGS4 (in words): screen hits; for Mean absorbance at 642 nm, positive control wells: 10 μM final. In kind it is biochemical.

T1 sequence (P49799 51-205 C71A/C95A/C132A/C148A/C183A/C197A/C204A limits assumed): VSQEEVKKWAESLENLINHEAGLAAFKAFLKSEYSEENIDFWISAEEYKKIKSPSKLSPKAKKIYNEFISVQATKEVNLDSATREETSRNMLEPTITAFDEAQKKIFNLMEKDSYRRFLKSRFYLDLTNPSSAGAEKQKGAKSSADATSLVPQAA
Protocol for RGS4(WT): Stock solutions of each of the 3 components of the developing solution were prepared, which were stable for long-term storage [19]. Malachite solution was prepared by first diluting concentrated sulfuric acid 1:5 in distilled water. Once the solution cooled to 25° C., malachite solution was prepared by dissolving 0.44 g of malachite green oxalate (Alfa Aesar; Ward Hill, Mass.) in 360 mL diluted acid and stored at 25° C. Molybdate solution, containing 7.5% ammonium molybdate tetrahydrate (Alfa Aesar; Ward Hill, Mass.), was prepared in distilled water and stored at 4° C. Tween-20 solution, used to maintain solubility of the phosphate-molybdate-malachite complex, was prepared as 11% (v/v) Tween-20 in distilled water. On the day of use, 2.5 mL molybdate solution and 0.2 mL Tween-20 solution were added to 10 mL of malachite solution and mixed quickly to avoid precipitation of malachite. The final ratio of the Developing Solution (DS) was 50:12.5:1 (malachite:molybdate:Tween-20). The peak absorbance was determined by a 2 nm step wavelength scan, using 50 μM NaH2PO4 at pH 8.0 as the negative control.
The malachite green assay involved 5 components, with a 1 min spin at 100×g between each addition. For time-course experiments, the first component was 10 μL Malachite Green Assay Buffer (MGB; 50 mM HEPES at pH 7.5, 100 mM NaCl, 5 mM EDTA, 10 mM MgCl2, 0.01% lubrol) into a clear 384-well plate (ThermoFisher Scientific; Waltham, Mass.) using a MultiDrop dispenser (PerkinElmer; Waltham, Mass.). The second component dispensed was 10 μL of a 4× stock of RGS4, typically 200 nM to 1.6 μM with the target final concentration of 50 nM to 400 nM, diluted in MGB. After a 30 min incubation, 10 μL of the third component, 4× stock of Gαi diluted in MGB, was dispensed (typically between 4 μM and 80 μM with a desired final concentration 1 μM to 20 μM). After a minimum of 5 min incubation, 10 μL of the fourth component, 4×GTP diluted in MGB, was added at 10 minute intervals from 1-110 minutes. 4×GTP concentrations varied between 0.2 mM and 2.4 mM, with a target final concentration of 50 μM to 600 μM. To terminate the reaction, 10 μL of DS was added to each well using a Microlab Star liquid handling robot (Hamilton Robotics; Reno, Nev.), to achieve a final ratio 4:1 (sample:developing solution). Following the spin, the plate was incubated for 25 min before being read at 642 nm for absorbance using an EnVision plate reader (PerkinElmer; Waltham, Mass.).
Malachite green compound activity and Z-factor analysis conducted in 384-well plates utilized optimized parameters as discerned from the time-course experiments. 10 μL of 4× compound or MGB was dispensed into appropriate wells. For single point assay, 160 μM compound was used, and for dose-response assays a series of ½ log dilutions from 100 μM final to 316 μM final was used. 10 μL of the optimized 4×RGS4 concentration, 0.8 μM in MGB, was dispensed into all wells. After a spin down at 100×g for 1 min, the assay plate was incubated at 25° C. for 30 min. 10 μL of the optimized Gαi concentration, 20 μM in MGB, was dispensed to each well and incubated at 25° C. for 5 min. 10 μL of the optimized 4×GTP, 600 μM in MGB, was then added to the samples. After spinning the samples down at 100×g for 1 min, the samples were incubated at 25° C. for 75 min. The samples were then stamped with 10 μL of DS and incubated for 25 min before reading absorbance at 642 nm.
1536-well Z-factor analysis and compound library screen were accomplished largely as described for 384-well plates. Initial screen and Z-factor determination was performed in a final concentration of 5.5% dimethylsulfoxide. For 1536-well assays NUNC clear plates were used (ThermoFisher Scientific; Waltham, Mass.). Each component was dispensed as 1.8 μL samples into each well using a FlexDrop (PerkinElmer; Waltham, Mass.).

On to `CC1=C(O)C(=O)C=C2C1=CC=C1[C@@]2(C)CC[C@@]2(C)[C@@H]3C[C@](C)(C(=O)O)CC[C@]3(C)CC[C@]12C` [UI-1590, celastrol], for which the values for the pIC50 on RGS4(Δ7) mutant and on RGS4(WT) were 4.06 and 6.14, respectively.

Regarding `CC(C)=CCC[C@]1(C)C=Cc2c(O)c3c(c(CC=C(C)C)c2O1)O[C@]12C(=C[C@@H]4C[C@H]1C(C)(C)O[C@@]2(C/C=C(/C)C(=O)O)C4=O)C3=O` [UI-1907, gambogic acid], at RGS4(Δ7) mutant, the negative-log IC50 (pIC50) (in general, the negative decadic logarithm of the IC50, by convention in mol/L) is 4.29 and the “Inhibition of RGS4(Δ7) mutant (in words)” value was “inhibitors”. At RGS4(WT), the pIC50 is 4.80 and the “Inhibition of RGS4 (in words)” value is given as “inhibitors”.

Regarding `C[n+]1cc2c3c(ccc2c2ccc4cc5c(cc4c21)OCO5)OCO3` [UI-5, sanguinarium sulfate], the pIC50 on RGS4(Δ7) mutant was 3.34; on RGS4(WT) it was 3.90.

For `Cc1ccc(-n2sc(=O)n(Cc3ccc(F)cc3)c2=O)cc1` [CCG-50014, reference compound], the “Mean absorbance at 642 nm, positive control wells” value is recorded as 0.92 at RGS4(WT) (384-well plate, 192 wells, negative control mean 1.74) and 0.30 on RGS4(WT) (1536-well plate, 5.5% DMSO, 128 wells, negative control mean 0.67).

As for `CC(=O)Oc1c2c(c(CC=C(C)C)c3c1C(=O)C1=C[C@@H]4C[C@H]5C(C)(C)OC(C/C=C(\C)C(=O)O)(C4=O)[C@@]15O3)O[C@](C)(CCC=C(C)C)C=C2` [UI-2034, acetyl-isogambogic acid], the “Inhibition of RGS4(Δ7) mutant (in words)” value on RGS4(Δ7) mutant is on record as “inhibitors”. Besides, the “Inhibition of RGS4 (in words)” value on RGS4(WT) is “inhibitors”.
